Where two headings read alike, the source gives them in different places.
Experiments:
[1] = system: LNCap cells; assay: CTG cell proliferation assay on LNCap cells (method of Effect embodiment 1); format: cell-based
[2] = system: Vcap cells; assay: CTG cell proliferation assay on Vcap cells (compounds alone or in combination, 5 days); format: cell-based; conditions: for viability at 0.1 µM / viability at 1 µM / viability at 10 µM: Homo sapiens, VCaP, 120 h; for Vcap cell proliferation inhibition rate: 5 days
Protocol: In vitro test of the inhibition effect of the compound in combination with androgen receptor pathway modulators on the prostate cancer cell proliferation.
Inhibition effect of the compounds such as B101, B102, B103, B104, B105, B106, C111 and the like, androgen receptor pathway modulators, hormone compounds, alone or in combination with each other on the prostate cancer cell proliferation were tested on Vcap cells (androgen receptor (+) prostate cancer cells) (ATCC, catalogue number CRL-2876). The specific experimental operation was as follows: 5×10^3 Vcap cells per well were inoculated into 96-well plates with transparent bottom and white wall (Corning, catalogue number CLS3903) containing the specific medium, and were cultured in a 37° C., 5% CO2 incubator for 24 hours. The tested compounds and the androgen receptor pathway modulators were prepared to a 150 mM stocking solution with DMSO (Sigma, catalogue number 276855), diluted with culture medium to the desired concentrations (the final concentration of DMSO is 0.2%), and then added to each well, 2 wells/concentration, followed by being incubated in a 37° C., 5% CO2 incubator for 5 days. The tested compounds were used alone or in combination with other androgen receptor pathway modulators and/or hormone compounds respectively. […] After that, 100 μl of CellTiter-Glo® cell viability assay reagent (Promega, catalogue number G7570) was added to each well and mixed well on a vibrator for 10 minutes to induce cell lysis. The 96-well plate was placed at room temperature for 10 minutes, so as to stabilize its luminescence signal. A white bottom membrane was pasted on the bottom of the plate and the plate was tested using EnSpire.

[3] = tested compound 0.1 μM in combination with 1 μM B101
[4] = tested compound 0.1 μM in combination with 1 μM B105
[5] = tested compound 1 μM in combination with 1 μM B101
[6] = tested compound 1 μM in combination with 1 μM B105
[7] = tested compound 10 μM in combination with 1 μM B101
[8] = tested compound 10 μM in combination with 1 μM B105
[9] = tested compound alone, 0.1 μM, read-out: Survival rate of Vcap cells
[10] = tested compound alone, 1 μM, read-out: Survival rate of Vcap cells
[11] = tested compound 0.1 μM in combination with 1 μM ARN-509
[12] = tested compound 0.1 μM in combination with 1 μM Abiraterone acetate
[13] = tested compound 0.1 μM in combination with 1 μM Enzalutamide
[14] = tested compound 0.1 μM in combination with 1 μM Galeterone
[15] = tested compound 1 μM in combination with 1 μM ARN-509
[16] = tested compound 1 μM in combination with 1 μM Abiraterone acetate
[17] = tested compound 1 μM in combination with 1 μM Enzalutamide
[18] = tested compound 1 μM in combination with 1 μM Galeterone
[19] = tested compound 10 μM in combination with 1 μM ARN-509
[20] = tested compound 10 μM in combination with 1 μM Abiraterone acetate
[21] = tested compound 10 μM in combination with 1 μM Enzalutamide
[22] = tested compound 10 μM in combination with 1 μM Galeterone
[23] = tested compound alone, 10 μM, read-out: Survival rate of Vcap cells
[24] = tested compound 0.1 μM in combination with 1 μM ODM-201
[25] = tested compound 1 μM in combination with 1 μM ODM-201
[26] = tested compound 10 μM in combination with 1 μM ODM-201
[27] = read-out: Survival rate of Vcap cells, tested compound alone, 0.1 μM

CNC(=O)c1ccc(N2C(=S)N(c3cnc(C#N)c(C(F)(F)F)c3)C(=O)C23CCC3)cc1F [ARN-509, reference compound]
Survival rate of LNCap cells ([1]; tested compound alone, 0.1 μM): 105.2% | Survival rate of LNCap cells ([1]; tested compound alone, 1 μM): 86.7% | Survival rate of LNCap cells ([1]; tested compound alone, 10 μM): 60.2% | Survival rate of Vcap cells [2, 3]: 42.7% | Survival rate of Vcap cells [2, 4]: 45.3% | Survival rate of Vcap cells [2, 5]: 39.2% | Survival rate of Vcap cells [2, 6]: 38.6% | Survival rate of Vcap cells [2, 7]: 38.4% | Survival rate of Vcap cells [2, 8]: 38.0%

CC(=O)O[C@H]1CC[C@@]2(C)C(=CC[C@@H]3[C@@H]2CC[C@]2(C)C(c4cccnc4)=CC[C@@H]32)C1 [Abiraterone acetate, reference compound]
Survival rate of LNCap cells ([1]; tested compound alone, 0.1 μM): 109.2% | Survival rate of LNCap cells ([1]; tested compound alone, 1 μM): 90.7% | Survival rate of LNCap cells ([1]; tested compound alone, 10 μM): 45.2% | viability at 0.1 µM [2, 9]: 106% | viability at 1 µM [2, 10]: 91.7% | Survival rate of Vcap cells [2, 3]: 72.2% | Survival rate of Vcap cells [2, 4]: 77.3% | Survival rate of Vcap cells [2, 5]: 70.5% | Survival rate of Vcap cells [2, 6]: 70.7% | Survival rate of Vcap cells [2, 7]: 66.7% | Survival rate of Vcap cells [2, 8]: 69.2%

Nc1cc(F)cc2c1CN(C1CCC(=O)NC1=O)C2=O (centres unmarked) [B101]
Survival rate of LNCap cells [1, 11]: 86.7% | Survival rate of LNCap cells [1, 12]: 82.4% | Survival rate of LNCap cells [1, 13]: 59.3% | Survival rate of LNCap cells [1, 14]: 76.3% | Survival rate of LNCap cells [1, 15]: 46.3% | Survival rate of LNCap cells [1, 16]: 46.2% | Survival rate of LNCap cells [1, 17]: 34.1% | Survival rate of LNCap cells [1, 18]: 43.6% | Survival rate of LNCap cells [1, 19]: 32.4% | Survival rate of LNCap cells [1, 20]: 33.2% | Survival rate of LNCap cells [1, 21]: 27.1% | Survival rate of LNCap cells [1, 22]: 31.4% | Survival rate of LNCap cells ([1]; tested compound alone, 0.1 μM): 99.6% | Survival rate of LNCap cells ([1]; tested compound alone, 1 μM): 63% | Survival rate of LNCap cells ([1]; tested compound alone, 10 μM): 42.4% | viability at 0.1 µM [2, 9]: 77.7% | viability at 1 µM [2, 10]: 65.4% | viability at 10 µM [2, 23]: 64.7% | Survival rate of Vcap cells [2, 11]: 29.3% | Survival rate of Vcap cells [2, 12]: 61.8% | Survival rate of Vcap cells [2, 13]: 30.6% | Survival rate of Vcap cells [2, 14]: 38.6% | Survival rate of Vcap cells [2, 24]: 43.8% | Survival rate of Vcap cells [2, 15]: 24.3% | Survival rate of Vcap cells [2, 16]: 56.6% | Survival rate of Vcap cells [2, 17]: 25.2% | Survival rate of Vcap cells [2, 18]: 34.4% | Survival rate of Vcap cells [2, 25]: 37.1% | Survival rate of Vcap cells [2, 19]: 24.5% | Survival rate of Vcap cells [2, 20]: 52.9% | Survival rate of Vcap cells [2, 21]: 24.4% | Survival rate of Vcap cells [2, 22]: 32.5% | Survival rate of Vcap cells [2, 26]: 32.5%

[2H][C@]1(N2Cc3c(N)cc(F)cc3C2=O)CCC(=O)NC1=O [B105]
Survival rate of LNCap cells [1, 11]: 82.6% | Survival rate of LNCap cells [1, 12]: 83.7% | Survival rate of LNCap cells [1, 13]: 57.5% | Survival rate of LNCap cells [1, 14]: 73.4% | Survival rate of LNCap cells [1, 15]: 44.7% | Survival rate of LNCap cells [1, 16]: 47.9% | Survival rate of LNCap cells [1, 17]: 32% | Survival rate of LNCap cells [1, 18]: 40.6% | Survival rate of LNCap cells [1, 19]: 32.4% | Survival rate of LNCap cells [1, 20]: 31.7% | Survival rate of LNCap cells [1, 21]: 25.8% | Survival rate of LNCap cells [1, 22]: 30.6% | Survival rate of LNCap cells ([1]; tested compound alone, 0.1 μM): 102.9% | Survival rate of LNCap cells ([1]; tested compound alone, 1 μM): 61.5% | Survival rate of LNCap cells ([1]; tested compound alone, 10 μM): 40.8% | Vcap cell proliferation inhibition rate ([2]; B105 or C111 0.05 μM alone): 17.4% | Vcap cell proliferation inhibition rate ([2]; B105 or C111 0.14 μM alone): 23.9% | Vcap cell proliferation inhibition rate ([2]; B105 or C111 1.23 μM alone): 26.3% | Vcap cell proliferation inhibition rate ([2]; B105 or C111 3.70 μM alone): 25.9% | Vcap cell proliferation inhibition rate ([2]; B105 or C111 11.11 μM alone): 27.0% | Vcap cell proliferation inhibition rate ([2]; B105 or C111 33.33 μM alone): 27.4% | Vcap cell proliferation inhibition rate ([2]; B105 or C111 100.00 μM alone): 25.1% | Vcap cell proliferation inhibition rate ([2]; B105 or C111 300.00 μM alone): 22.8% | viability at 0.1 µM [2, 9]: 83.3% | viability at 1 µM [2, 10]: 72.5% | viability at 10 µM [2, 23]: 72.7% | Survival rate of Vcap cells [2, 11]: 30.6% | Survival rate of Vcap cells [2, 12]: 65.0% | Survival rate of Vcap cells [2, 13]: 31.6% | Survival rate of Vcap cells [2, 14]: 40.9% | Survival rate of Vcap cells [2, 24]: 43.3% | Survival rate of Vcap cells [2, 15]: 28.0% | Survival rate of Vcap cells [2, 16]: 57.1% | Survival rate of Vcap cells [2, 17]: 27.5% | Survival rate of Vcap cells [2, 18]: 36.7% | Survival rate of Vcap cells [2, 25]: 36.6% | Survival rate of Vcap cells [2, 19]: 27.0% | Survival rate of Vcap cells [2, 20]: 58.0% | Survival rate of Vcap cells [2, 21]: 27.5% | Survival rate of Vcap cells [2, 22]: 36.3% | Survival rate of Vcap cells [2, 26]: 32.2%

CC(O)c1cc(C(=O)N[C@@H](C)Cn2ccc(-c3ccc(C#N)c(Cl)c3)n2)[nH]n1 (some centres unmarked) [ODM-201, reference compound]
viability at 0.1 µM [2, 27]: 90.7% | viability at 10 µM ([2]; read-out: Survival rate of Vcap cells, tested compound alone, 10 μM): 75.4% | viability at 1 µM [2, 10]: 69% | Survival rate of Vcap cells ([2]; tested compound alone, 1 μM): 69.0%

C[C@]12C=CC(=O)C=C1CC[C@@H]1[C@@H]2C(=O)C[C@@]2(C)[C@H]1CC[C@]2(O)C(=O)CO [Prednisone, reference compound]
viability at 0.1 µM [2, 9]: 99.1% | viability at 1 µM [2, 10]: 99.7% | viability at 10 µM [2, 23]: 99.4% | Survival rate of Vcap cells [2, 3]: 84.0% | Survival rate of Vcap cells [2, 4]: 87.5% | Survival rate of Vcap cells [2, 5]: 76.9% | Survival rate of Vcap cells [2, 6]: 80.6% | Survival rate of Vcap cells [2, 7]: 75.3% | Survival rate of Vcap cells [2, 8]: 79.7%

CC(=O)S[C@@H]1CC2=CC(=O)CC[C@]2(C)[C@H]2CC[C@@]3(C)[C@@H](CC[C@@]34CCC(=O)O4)[C@H]12 [Spironolactone, reference compound]
viability at 0.1 µM [2, 9]: 100% | viability at 1 µM [2, 10]: 91.3% | viability at 10 µM [2, 23]: 72.5% | Survival rate of Vcap cells [2, 3]: 85.3% | Survival rate of Vcap cells [2, 4]: 87.2% | Survival rate of Vcap cells [2, 5]: 77.3% | Survival rate of Vcap cells [2, 6]: 79.6% | Survival rate of Vcap cells [2, 7]: 65.9% | Survival rate of Vcap cells [2, 8]: 64.5%

CC(O)(CS(=O)(=O)c1ccc(F)cc1)C(=O)Nc1ccc(C#N)c(C(F)(F)F)c1 (centres unmarked) [bicalutamide, reference compound]
viability at 0.1 µM [2, 27]: 99.2% | viability at 1 µM [2, 10]: 94% | viability at 10 µM [2, 23]: 92% | Survival rate of Vcap cells [2, 3]: 70.5% | Survival rate of Vcap cells [2, 4]: 75.9% | Survival rate of Vcap cells [2, 5]: 66.5% | Survival rate of Vcap cells [2, 6]: 67.3% | Survival rate of Vcap cells [2, 7]: 64.0% | Survival rate of Vcap cells [2, 8]: 63.4%
